Assays:
Type in all cases: cell-based
E. coli 2150 = assay: Broth microdilution MIC (strain enzymes: SHV-3, TEM-1); conditions: Escherichia coli, 2150; alone; read-out: MIC of ceftibuten (CTB)
K. pneumoniae KI (KCl) = assay: Broth microdilution MIC (strain enzymes: TEM-10); conditions: Klebsiella pneumoniae; alone; read-out: MIC of ceftibuten (CTB)
K. pneumoniae ESBL 8 #1 = assay: Broth microdilution MIC (strain enzymes: TEM-1, SHV-12); conditions: Klebsiella pneumoniae; alone; read-out: MIC of ceftibuten (CTB)
K. oxytoca 169219 = assay: Broth microdilution MIC (strain enzymes: TEM-1, CTXM-15); conditions: Klebsiella oxytoca, 169219; alone; read-out: MIC of ceftibuten (CTB)
E. coli SI-V502 = assay: Broth microdilution MIC (strain enzymes: TEM-29, CTX-M15); conditions: Escherichia coli, SIV502; alone; read-out: MIC of ceftibuten (CTB)
E. coli SI-NO36 = assay: Broth microdilution MIC (strain enzymes: SHV-11, TEM-1); conditions: Escherichia coli, SINO36; alone; read-out: MIC of ceftibuten (CTB)
E. coli SI-AIRT-4 = assay: Broth microdilution MIC (strain enzymes: TEM-1); conditions: Escherichia coli, SIAIRT4; alone; read-out: MIC of ceftibuten (CTB)
K. pneumoniae SI-KP NO30 = assay: Broth microdilution MIC (strain enzymes: TEM-26b, SHV-60, SHV-26); conditions: Klebsiella pneumoniae, SIKPNO30; alone; read-out: MIC of ceftibuten (CTB)
K. pneumoniae 153239 = assay: Broth microdilution MIC (strain enzymes: SHV-11, TEM-1); conditions: Klebsiella pneumoniae, 153239; alone; read-out: MIC of ceftibuten (CTB)
K. pneumoniae 170375 = assay: Broth microdilution MIC (strain enzymes: SHV-12, CTX-M15 and TEM-1); conditions: Klebsiella pneumoniae, 170375; alone; read-out: MIC of ceftibuten (CTB)
K. pneumoniae KP 8 = assay: Broth microdilution MIC (strain enzymes: TEM-10, TEM-1, CTX-M15); conditions: Klebsiella pneumoniae, KP8; alone; read-out: MIC of ceftibuten (CTB)
K. pneumoniae BAA 1705 = assay: Broth microdilution MIC (strain KPC-producing); conditions: Klebsiella pneumoniae, BAA1705; alone; read-out: MIC of ceftibuten (CTB)
K. pneumoniae 115468 = assay: Broth microdilution MIC (strain enzymes: TEM-1); conditions: Klebsiella pneumoniae, 115468; alone; read-out: MIC of ceftibuten (CTB)
E. coli BAS 1 = assay: Broth microdilution MIC (strain enzymes: none detected); conditions: Escherichia coli, BAS1; alone; read-out: MIC of ceftibuten (CTB)
K. pneumoniae KPN 508 = assay: Broth microdilution MIC (strain enzymes: SHV-7, TEM-1); conditions: Klebsiella pneumoniae, KPN508; alone; read-out: MIC of ceftibuten (CTB)
K. pneumoniae KP 3 = assay: Broth microdilution MIC (strain enzymes: SHV-1, TEM-1); conditions: Klebsiella pneumoniae, KP3; alone; read-out: MIC of ceftibuten (CTB)
E. coli SI-PBLII = assay: Broth microdilution MIC (strain enzymes: CTX-M2, TEM-1); conditions: Escherichia coli; alone; read-out: MIC of ceftibuten (CTB)
E. coli ESBL 4 = assay: Broth microdilution MIC (strain enzymes: CTX-M15, TEM-1); conditions: Escherichia coli, ESBL4; alone; read-out: MIC of ceftibuten (CTB)
K. pneumoniae 11/23 LF#2 = assay: microbe, parasite or virus in culture; conditions: Klebsiella pneumoniae, read-out: MIC of ceftibuten (CTB)
E. coli SI-LP377 = assay: microbe, parasite or virus in culture; conditions: Escherichia coli, SILP377, read-out: MIC of ceftibuten (CTB)
K. pneumoniae 3151 = assay: Broth microdilution MIC (strain enzymes: SHV-12, TEM-1); conditions: Klebsiella pneumoniae, 3151; alone; read-out: MIC of ceftibuten (CTB)

## Nc1nc(/C(=C/CC(=O)O)C(=O)N[C@@H]2C(=O)N3C(C(=O)O)=CCS[C@H]23)cs1 [Ceftibuten, ceftibuten, reference compound]
E. coli 2150
  MIC: 0.5 µg/mL
K. pneumoniae KI (KCl)
  MIC: 1 µg/mL
K. pneumoniae ESBL 8 #1
  MIC: 16 µg/mL
K. oxytoca 169219
  MIC: 4 µg/mL
E. coli SI-V502
  MIC: 0.5 µg/mL
E. coli SI-NO36
  MIC: 0.5 µg/mL
E. coli SI-AIRT-4
  MIC: 0.5 µg/mL
K. pneumoniae SI-KP NO30
  MIC: 0.25 µg/mL
K. pneumoniae 153239
  MIC: 0.25 µg/mL
K. pneumoniae 170375
  MIC: 32 µg/mL
K. pneumoniae KP 8
  MIC: 0.25 µg/mL
K. pneumoniae BAA 1705
  MIC: 32 µg/mL
K. pneumoniae 115468
  MIC: 8 µg/mL
E. coli BAS 1
  MIC: > 32 µg/mL
K. pneumoniae KPN 508
  MIC: 32 µg/mL
K. pneumoniae KP 3
  MIC: 2 µg/mL
E. coli SI-PBLII
  MIC: 0.5 µg/mL
E. coli ESBL 4
  MIC: > 32 µg/mL
K. pneumoniae 11/23 LF#2
  MIC: 2 µg/mL
E. coli SI-LP377
  MIC: 4 µg/mL
K. pneumoniae 3151
  MIC: > 32 µg/mL
